US6248739A, “Quinolinecarboxamides as antiviral agents” (Pharmacia & Upjohn Company, priority 1999, dated 2001)

Target: T1, HCMV polymerase (Human cytomegalovirus, UniProt P08546)
T1 construct: made in house; host or cells: recombinant baculovirus-infected SF-9 insect cells
Assay: biochemical
Details: HCMV polymerase; SPA; modified assay: compounds in 100% DMSO, 4.5 mM DTT
Description: The HCMV polymerase assay is performed using a scintillation proximity assay (SPA) as described in several references, such as N. D. Cook, et al., Pharmaceutical Manufacturing International, pages 49-53 (1992); K. Takeuchi, Laboratory Practice, September issue (1992); U.S. Pat. No. 4,568,649 (1986); which are incorporated by reference herein. Reactions are performed in 96-well plates. The assay is conducted in 100 μl volume with 5.4 mM HEPES (pH 7.5), 11.7 mM KCl, 4.5 mM MgCl2, 0.36 mg/ml BSA, and 90 nM ^3 H-dTTP. Assays are run with and without CHAPS, (3-[(3-Cholamidopropyl)dimethylammonio]-1-propane-sulfonate) at a final concentration of 2 mM. HCMV polymerase is diluted in enzyme dilution buffer containing 50% glycerol, 250 mM NaCl, 10 mM HEPES (pH 7.5), 100 μg/ml BSA, and 0.01% sodium azide. The HCMV polymerase, which is expressed in recombinant baculovirus-infected SF-9 cells and purified according to literature procedures, is added at 10% (or 10 μl) of the final reaction volume, i.e., 100 μl. Compounds are diluted in 50% DMSO and 10 μl are added to each well. Control wells contain an equivalent concentration of DMSO. Unless noted otherwise, reactions are initiated via the addition of 6 nM biotinylated poly(dA)-oligo(dT) template/primer to reaction mixtures containing the enzyme, substrate, and compounds of interest. Plates are incubated in a 25 C. or 37 C. H2 O bath and terminated via the addition of 40 μl/reaction of 0.5 M EDTA (pH 8) per well. Reactions are terminated within the time-frame during which substrate incorporation is linear and varied depending upon the enzyme and conditions used, i.e., 30 min. for HCMV polymerase. Ten μl of streptavidin-SPA beads (20 mg/ml in PBS/10% glycerol) are added following termination of the reaction. Plates are incubated 10 min. at 37 C., then equilibrated to room temperature, and counted on a Packard Topcount. Linear regressions are performed and IC50 's are calculated using computer software.
A modified version of the above HCMV polymerase assay is performed as described above, but with the following changes: Compounds are diluted in 100% DMSO until final dilution into assay buffer. In the previous assay, compounds are diluted in 50% DMSO. 4.5 mM dithiotherotol (DTT) is added to the polymerase buffer.

T1 sequence (P08546 whole entry): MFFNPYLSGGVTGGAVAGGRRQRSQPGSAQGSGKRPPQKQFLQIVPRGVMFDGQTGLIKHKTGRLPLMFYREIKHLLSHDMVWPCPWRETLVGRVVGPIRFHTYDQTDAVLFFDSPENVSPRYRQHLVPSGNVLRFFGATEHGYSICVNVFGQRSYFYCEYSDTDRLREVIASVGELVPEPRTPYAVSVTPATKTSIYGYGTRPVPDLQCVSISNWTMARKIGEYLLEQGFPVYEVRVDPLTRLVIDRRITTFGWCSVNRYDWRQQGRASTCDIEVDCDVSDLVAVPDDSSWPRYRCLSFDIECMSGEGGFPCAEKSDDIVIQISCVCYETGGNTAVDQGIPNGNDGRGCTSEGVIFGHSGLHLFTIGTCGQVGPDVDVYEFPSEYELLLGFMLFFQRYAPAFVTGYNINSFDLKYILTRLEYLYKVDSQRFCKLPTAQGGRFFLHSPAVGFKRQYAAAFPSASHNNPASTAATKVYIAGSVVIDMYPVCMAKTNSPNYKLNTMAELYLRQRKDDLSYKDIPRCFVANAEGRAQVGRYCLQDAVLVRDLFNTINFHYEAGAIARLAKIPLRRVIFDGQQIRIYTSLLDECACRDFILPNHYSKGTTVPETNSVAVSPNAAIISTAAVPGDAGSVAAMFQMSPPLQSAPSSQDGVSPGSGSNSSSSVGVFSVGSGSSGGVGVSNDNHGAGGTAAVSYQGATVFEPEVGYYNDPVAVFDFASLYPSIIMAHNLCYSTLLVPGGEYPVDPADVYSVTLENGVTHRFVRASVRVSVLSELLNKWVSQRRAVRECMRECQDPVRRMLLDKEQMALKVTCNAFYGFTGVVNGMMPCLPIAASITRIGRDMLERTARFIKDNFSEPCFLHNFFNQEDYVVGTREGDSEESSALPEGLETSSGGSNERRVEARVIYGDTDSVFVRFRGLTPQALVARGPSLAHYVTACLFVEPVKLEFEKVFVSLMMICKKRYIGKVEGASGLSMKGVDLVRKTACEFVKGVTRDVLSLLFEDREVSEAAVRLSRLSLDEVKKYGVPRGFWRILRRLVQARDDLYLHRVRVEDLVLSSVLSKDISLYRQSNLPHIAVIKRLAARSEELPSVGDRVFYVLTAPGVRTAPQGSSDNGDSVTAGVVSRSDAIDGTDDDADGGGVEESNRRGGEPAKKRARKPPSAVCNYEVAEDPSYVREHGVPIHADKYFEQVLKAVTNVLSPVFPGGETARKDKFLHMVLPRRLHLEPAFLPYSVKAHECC

| IC50 [nM] | Structure (SMILES) |
| --- | --- |
| 530 | O=C(NCc1ccc(Cl)cc1)c1cn(CS(=O)(=O)c2ccccc2)c2ccc(CN3CCOCC3)cc2c1=O [Example 82, N-(4-Chlorobenzyl)-6-(4-morpholinylmethyl)-4-oxo-1-[(phenylsulfonyl)methyl]-1,4-dihydro-3-quinolinecarboxamide] |
| 600 | COCCOCCn1cc(C(=O)NCc2ccc(Cl)cc2)c(=O)c2cc(CCCO)ccc21 [Example 83, N-(4-chlorobenzyl)-6-(3-hydroxypropyl)-1-[2-(2-methoxyethoxy)ethyl]-4-oxo-1,4-dihydro-3-quinolinecarboxamide] |
| 1200 | COCCOCCn1cc(C(=O)NCc2ccc(Cl)cc2)c(=O)c2cc(CN3CCOCC3)ccc21 [Example 84] |
| 6000 | COCCOCCn1cc(C(=O)NCc2ccc(Cl)cc2)c(=O)c2cc(CN3CCC(=O)CC3)ccc21 [Example 85, N-(4-Chlorobenzyl)-1-[2-(2-methoxyethoxy)ethyl]-4-oxo-6-[(4-oxo-1-piperidinyl)methyl]-1,4-dihydro-3-quinolinecarboxamide] |
| 2500 | COCCOCCn1cc(C(=O)NCc2ccc(Cl)cc2)c(=O)c2cc(CN(C)CC#N)ccc21 [Example 86, N-(4-Chlorobenzyl)-6-{[(cyanomethyl)(methyl)amino]methyl}-1-[2-(2-methoxyethoxy)ethyl]-4-oxo-1,4-dihydro-3-quinolinecarboxamide] |
| 4000 | COCCOCCn1cc(C(=O)NCc2ccc(Cl)cc2)c(=O)c2cc(CN3CC[C@@H](O)C3)ccc21 [Example 87, N-(4-Chlorobenzyl)-6-{[(3R)-3-hydroxypyrrolidinyl]methyl}-1-[2-(2-methoxyethoxy)ethyl]-4-oxo-1,4-dihydro-3-quinolinecarboxamide] |
| 5900 | COCCOCCn1cc(C(=O)NCc2ccc(Cl)cc2)c(=O)c2cc(CN(C)[C@H](C)[C@@H](O)c3ccccc3)ccc21 [Example 88, N-(4-Chlorobenzyl)-6-{[[(1R,2S)-2-hydroxy-1-methyl-2-phenylethyl](methyl)amino]methyl}-1-[2-(2-methoxyethoxy)ethyl]-4-oxo-1,4-dihydro-3-quinolinecarboxamide] |
| 6700 | COCCOCCn1cc(C(=O)NCc2ccc(Cl)cc2)c(=O)c2cc(CN(C)CC(O)c3ccccc3)ccc21 (centres unmarked) [Example 89, N-(4-Chlorobenzyl)-6-{[(2-hydroxy-2-phenylethyl)(methyl)amino]methyl}-1-[2-(2-methoxyethoxy)ethyl]-4-oxo-1,4-dihydro-3-quinoline-carboxamide] |
| 4400 | COCCOCCn1cc(C(=O)NCc2ccc(Cl)cc2)c(=O)c2cc(CN(C)CC(O)c3ccc(O)cc3)ccc21 (centres unmarked) [Example 90, N-(4-Chlorobenzyl)-6-{[[2-hydroxy-2-(4-hydroxyphenyl)ethyl](methyl)amino]methyl}-1-[2-(2-methoxyethoxy)ethyl]-4-oxo-1,4-dihydro-3-quinolinecarboxamide] |
| 6200 | COCCOCCn1cc(C(=O)NCc2ccc(Cl)cc2)c(=O)c2cc(CSC)ccc21 [Example 93, N-(4-Chlorobenzyl)-1-[2-(2-methoxyethoxy)ethyl]-6-[(methylsulfanyl)methyl]-4-oxo-1,4-dihydro-3-quinolinecarboxamide] |
| 770 | Cn1cc(C(=S)NCc2ccc(Cl)cc2)c(=O)c2cc(C#CCO)ccc21 [Example 94, N-(4-chlorobenzyl)-6-(3-hydroxy-1-propynyl)-1-methyl4-oxo-1,4-dihydro-3-quinolinecarbothioamide] |
| 300 | Cn1cc(C(=S)NCc2ccc(Cl)cc2)c(=O)c2cc(CN3CCOCC3)ccc21 [Example 95, N-(4-Chlorobenzyl)-1-methyl-6-(4-morpholinylmethyl)-4-oxo-1,4-dihydro-3-quinolinecarbothioamide] |
| 1000 | Cn1cc(C(=O)NCc2ccc(Cl)cc2)c(=O)c2cccc(C#CCO)c21 [Example 96, N-(4-Chlorobenzyl)-8-(3-hydroxy-1-propynyl)-1-methyl-4-oxo-1,4-dihydro-3-quinolinecarboxamide] |
| 1500 | Cn1cc(C(=O)NCc2ccc(Cl)cc2)c(=O)c2cccc(C#CCCO)c21 [Example 97, N-(4-Chlorobenzyl)-8-(4-hydroxy-1-butynyl)-1-methyl-4-oxo-1,4-dihydro-3-quinolinecarboxamide] |
| 310 | Cn1cc(C(=O)NCc2ccc(Cl)cc2)c(=O)c2cc(CC3CCOCC3)ccc21 [Example 98, N-(4-Chlorobenzyl)-1-methyl-4-oxo-6-(tetrahydro-2H-pyran-4-ylmethyl)-1,4-dihydro-3-quinolinecarboxamide] |
| 8000 | Cn1cc(C(=O)NCc2ccc(Cl)cc2)c(=O)c2cc(CN3CC(=NO)C3)ccc21 [Example 99, N-(4-Chlorobenzyl)-6-{[3-(ydroxyimino)-1-azetidinyl]methyl}-1-methyl-4-oxo-1,4-dihydro-3-quinolinecarboxamide] |
| 2900 | O=C(NCc1ccc(Cl)cc1)c1cn(CCOCCN2CCOCC2)c2ccc(CN3CCOCC3)cc2c1=O [Example 100] |
| 300 | O=C(NCc1ccc(Cl)cc1)c1cn(CSc2ccc(Cl)cc2)c2ccc(CN3CCOCC3)cc2c1=O [Example 101, N-(4-Chlorobenzyl)-1-([(4-chlorophenyl)sulfanyl]methyl)-6-(4-morpholinylmethyl)-4-oxo-1,4-dihydro-3-quinolinecarboxamide] |
| 590 | O=C(NCc1ccc(Cl)cc1)c1cn(C[S+]([O-])c2ccc(Cl)cc2)c2ccc(CN3CCOCC3)cc2c1=O (centres unmarked) [Example 102] |
| 830 | O=C(NCc1ccc(Cl)cc1)c1cn(CS(=O)(=O)c2ccc(Cl)cc2)c2ccc(CN3CCOCC3)cc2c1=O [Example 103, N-(4-Chlorobenzyl)-1-([(4-chlorophenyl)sulfonyl]methyl)-6-(4-morpholinylmethyl)-4-oxo-1,4-dihydro-3-quinolinecarboxamide] |
| 1600 | O=C(NCc1ccc(Cl)cc1)c1cn(COc2ccc(Cl)cc2)c2ccc(CN3CCOCC3)cc2c1=O [Example 104, N-(4-Chlorobenzyl)-1-[(4-chlorophenoxy)methyl]-6-(4-morpholinylmethyl)-4-oxo-1,4-dihydro-3-quinolinecarboxamide] |
| 1300 | COCCOCn1cc(C(=O)NCc2ccc(Cl)cc2)c(=O)c2cc(CN3CCOCC3)ccc21 [Example 105, N-(4-Chlorobenzyl)-1-[(2-methoxyethoxy)methyl]-6-(4-morpholinylmethyl)-4-oxo-1,4-dihydro-3-quinolinecarboxamide] |
| 3100 | O=C(OCCOCn1cc(C(=O)NCc2ccc(Cl)cc2)c(=O)c2cc(CN3CCOCC3)ccc21)c1ccccc1 [Example 106, 2-{[3-{[(4-Chlorobenzyl)amino]carbonyl}-6-(4-morpholinylmethyl)-4-oxo-1(4H)-quinolinyl]methoxy}ethyl benzoate] |
| 840 | O=C(NCc1ccc(Cl)cc1)c1cn(COCCO)c2ccc(CN3CCOCC3)cc2c1=O [Example 107] |
| 820 | O=C(NCc1ccc(Cl)cc1)c1cn(C2CCOCC2)c2ccc(CN3CCOCC3)cc2c1=O [Example 108, N-(4-Chlorobenzyl)-6-(4-morpholinylmethyl)-4-oxo-1-tetrahydro-2H-pyran-4-yl-1,4-dihydro-3-quinolinecarboxamide] |
| 480 | CN1CCC(n2cc(C(=O)NCc3ccc(Cl)cc3)c(=O)c3cc(CN4CCOCC4)ccc32)CC1 [Example 109, N-(4-Chlorobenzyl)-1-(1-methyl-4-piperidinyl)-6-(4-morpholinylmethyl)-4-oxo-1,4-dihydro-3-quinolinecarboxamide] |
| 670 | O=C(NCc1ccc(Cl)cc1)c1cn(C2CCNCC2)c2ccc(CN3CCOCC3)cc2c1=O [Example 110, N-(4-Chlorobenzyl)-6-(4-morpholinylmethyl)-4-oxo-1-(4-piperidinyl)-1,4-dihydro-3-quinolinecarboxamide] |
| 730 | O=C(NCc1ccc(Cl)cc1)c1cn(C2CCS(=O)(=O)CC2)c2ccc(CN3CCOCC3)cc2c1=O [Example 111, N-(4-Chlorobenzyl)-1-(1,1-dioxohexahydro-thiopyran-4-yl)-6-(4-morpholinylmethyl)-4-oxo-1,4-dihydro-3-quinolinecarboxamide] |

| Structure (SMILES) | IC50 [nM] |
| --- | --- |
| CC(C)(C)OCCOCCn1cc(C(=O)NCc2ccc(Cl)cc2)c(=O)c2cc(CN3CCOCC3)ccc21 [Example 91, 1-{2-[2-(tert-Butoxy)ethoxy]ethyl}-N-(4-chlorobenzyl)-6-(4-morpholinylmethyl)-4-oxo-1,4-dihydro-3-quinolinecarboxamide] | 2100 |
